Structures are written as SMILES.

The text below walks through data of US20230085307A1, “PYRIDAZINONE COMPOUND AND HERBICIDE” (NISSAN CHEMICAL CORPORATION, priority 2019, published 2023).

For one experiment, the system named is Italian ryegrass. In words: Test Example 5: herbicidal effect by foliage application, plastic box (Table 20, symbol K). To be noted: foliage application, 320 g/ha. It is filed as in vivo, Italian ryegrass (Lolium multiflorum). Summed up:
(§1)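 Plants were sown into sterilized diluvial soil under about 1.5 cm cover and kept in a greenhouse at 25° C. to 30° C. Fourteen days on, foliage received an even spray of the diluted emulsion. Herbicidal or crop effect was judged three weeks afterwards.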

A further experiment concerns persian speedwell. Description: Test Example 4: herbicidal effect by soil treatment (Table 19, symbol R). The format is in vivo, Persian speedwell (Veronica persica). To be noted: amount of applied herbicide 320 g/ha. The method, boiled down:
(§2)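 Pre-emergence style soil spray: seeds under ~1.5 cm sterilized diluvial soil received a uniform coat of emulsion diluted to the predetermined herbicide amount. Greenhouse 25–30° C; readout at week three on previously defined criteria.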

The test system of experiment [1] is late watergrass. Description: Test Example 1: herbicidal activity, application before weed generation under submerged conditions (Table 16, symbol A). It is filed as in vivo, late watergrass (Echinochloa oryzicola). To be noted: amount of applied herbicide 320 g/ha. The method, boiled down: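 Submerged Wagner pots (alluvial soil, 4 cm water) sown with weed seeds and planted with 2.5-leaf rice seedlings; emulsifiable concentrate diluted in water applied to water surface on sowing day. Held in greenhouse at 25-30 °C; injury scored 0-5 by herbicidal rate after three weeks.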

The subject of experiment [2] is velvetleaf. Description: Test Example 5: herbicidal effect by foliage application, plastic box (Table 20, symbol M). The format is in vivo, velvetleaf (Abutilon theophrasti). The conditions noted are these: foliage application, 320 g/ha. The method, boiled down:
as §1

A further experiment deals with windgrass. In words: Test Example 4: herbicidal effect by soil treatment (Table 19, symbol L). It is filed as in vivo, windgrass (Apera spica-venti). The conditions noted are these: amount of applied herbicide 320 g/ha. Summed up:
as §2

Experiment [3] relates to green foxtail. Description: Test Example 5: herbicidal effect by foliage application, plastic box (Table 20, symbol G). To be noted: foliage application, 320 g/ha. It is filed as in vivo, green foxtail (Setaria viridis). Summed up: as §1
For another experiment, the system named is rice flat sedge. In words: Test Example 3: herbicidal effect by foliage application, Wagner pot (Table 18, symbol E). It is filed as in vivo, rice flat sedge (Cyperus iria). To be noted: amount of applied herbicide 320 g/ha. The method, boiled down: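 Plants were sown in alluvial soil held under 0.1–0.5 cm standing water and grown 14 days in a greenhouse at 25–30 °C. An emulsifiable formulation, water-diluted to the set dose, was then sprayed onto the foliage, and effects were scored three weeks later using previously defined criteria.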

The subject of the next experiment is Japanese bulrush. In words: Test Example 2: herbicidal activity, application during weed generation under submerged conditions (Table 17, symbol B). The format is in vivo, Japanese bulrush (Schoenoplectus juncoides). The conditions noted are these: AAH 320 g/ha; application during weed generation, submerged conditions. Summed up: (§3)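 Wagner pot, alluvial soil, 4 cm flood; mixed sowing of all species; greenhouse 25° C.–30° C. Emulsifiable formulation, water-diluted to predetermined dose, applied to paddy water at 1–2 leaf stage. Effect rated at 3 wk using the earlier test's scoring criteria.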

For the next experiment, the system named is barnyard grass. Description: Test Example 4: herbicidal effect by soil treatment (Table 19, symbol H). It is filed as in vivo, barnyard grass (Echinochloa crus-galli). To be noted: amount of applied herbicide 320 g/ha. Summed up: as §2
Another experiment concerns lambsquarters. Description: Test Example 4: herbicidal effect by soil treatment (Table 19, symbol O). The format is in vivo, lambsquarters (Chenopodium album). The conditions noted are these: amount of applied herbicide 320 g/ha. The method, boiled down: as §2
Another experiment relates to oval-leafed pondweed. Description: Test Example 2: herbicidal activity, application during weed generation under submerged conditions (Table 17, symbol C). The conditions noted are these: AAH 320 g/ha; application during weed generation, submerged conditions. It is filed as in vivo, oval-leafed pondweed (Monochoria vaginalis). Summed up:
as §3

Experiment [4] deals with velvetleaf. In words: Test Example 4: herbicidal effect by soil treatment (Table 19, symbol M). The format is in vivo, velvetleaf (Abutilon theophrasti). To be noted: amount of applied herbicide 320 g/ha. Summed up:
as §2

Experiment [5] concerns green foxtail. In words: Test Example 4: herbicidal effect by soil treatment (Table 19, symbol G). The format is in vivo, green foxtail (Setaria viridis). The conditions noted are these: amount of applied herbicide 320 g/ha. Summed up: as §2
Experiment [6] relates to late watergrass. In words: Test Example 2: herbicidal activity, application during weed generation under submerged conditions (Table 17, symbol A). It is filed as in vivo, late watergrass (Echinochloa oryzicola). To be noted: AAH 320 g/ha; application during weed generation, submerged conditions. The method, boiled down: as §3
The subject of experiment [7] is chickweed. In words: Test Example 4: herbicidal effect by soil treatment (Table 19, symbol P). It is filed as in vivo, common chickweed (Stellaria media). The conditions noted are these: amount of applied herbicide 320 g/ha. The method, boiled down:
as §2

Experiment [8] concerns chickweed. Description: Test Example 5: herbicidal effect by foliage application, plastic box (Table 20, symbol P). It is filed as in vivo, common chickweed (Stellaria media). The conditions noted are these: foliage application, 320 g/ha, evaluated 3 weeks after application. Summed up: as §1
The test system of the next experiment is redroot pigweed. In words: Test Example 5: herbicidal effect by foliage application, plastic box (Table 20, symbol N). The format is in vivo, redroot pigweed (Amaranthus retroflexus). To be noted: foliage application, 320 g/ha, evaluated 3 weeks after application. Summed up:
as §1

The mark [9] stands for this setting: evaluated 3 weeks after application.

On to `CSc1ccc(-c2oc3ccc(F)cc3c2-c2c(O)c(C)nn(C)c2=O)cc1` [9-037], for which the “herbicidal effect on Italian ryegrass (K)” value with Italian ryegrass (three weeks after application) is 5 (Herbicidal rate of 90% or more (almost completely withered)). In addition, the “R: persian speedwell, herbicidal effect grade” value in the experiment with persian speedwell is 4 (Herbicidal rate of 70% or more and less than 90%). For the same compound, the “Herbicidal effect, A: late watergrass” value in the experiment on late watergrass [1] was 3 (Herbicidal rate of 40% or more and less than 70%). Besides, the “herbicidal effect on velvetleaf (M)” value in the experiment with velvetleaf [2] (three weeks after application) is listed as 5 (Herbicidal rate of 90% or more (almost completely withered)). Further, in the experiment on windgrass, the “L: windgrass, herbicidal effect grade” value is reported as 0 (Herbicidal rate of 5% or less (almost no effect)). The “herbicidal effect on green foxtail (G)” value with green foxtail [3] (three weeks after application) is reported as 5 (Herbicidal rate of 90% or more (almost completely withered)). Also, in the experiment on rice flat sedge, the “Herbicidal effect on E (rice flat sedge), foliage application” value is 5 (Herbicidal rate of 90% or more (almost completely withered)). In addition, the “herbicidal effect rating, B: Japanese bulrush” value with Japanese bulrush was 2 (Herbicidal rate of 20% or more and less than 40%). In the experiment with barnyard grass, the “H: barnyard grass, herbicidal effect grade” value was 2 (Herbicidal rate of 20% or more and less than 40%). In addition, in the experiment on lambsquarters, the “O: lambsquarters, herbicidal effect grade” value is 2 (Herbicidal rate of 20% or more and less than 40%). For the same compound, the “herbicidal effect rating, C: oval-leafed pondweed” value in the experiment with oval-leafed pondweed is 2 (Herbicidal rate of 20% or more and less than 40%). For the same compound, the “M: velvetleaf, herbicidal effect grade” value in the experiment with velvetleaf [4] was 3 (Herbicidal rate of 40% or more and less than 70%). In the experiment on green foxtail [5], the “G: green foxtail, herbicidal effect grade” value was 1 (Herbicidal rate of 5% or more and less than 20%). Besides, in the experiment with late watergrass [6], the “herbicidal effect rating, A: late watergrass” value was 0 (Herbicidal rate of 5% or less (almost no effect)).

Take `COCCOc1ccc(-c2oc3ccc(F)cc3c2-c2c(O)c(C)nn(C)c2=O)cc1` [9-045]: in the experiment with Italian ryegrass (setting [9]), the “K (Italian ryegrass) herbicidal effect grade” value was 5 (Herbicidal rate of 90% or more (almost completely withered)). Also, the “R: persian speedwell, herbicidal effect grade” value with persian speedwell is 4 (Herbicidal rate of 70% or more and less than 90%). The “Herbicidal effect, A: late watergrass” value with late watergrass [1] is recorded as 5 (Herbicidal rate of 90% or more (almost completely withered)). The “M (velvetleaf) herbicidal effect grade” value in the experiment on velvetleaf [2] (setting [9]) was 5 (Herbicidal rate of 90% or more (almost completely withered)). The “G (green foxtail) herbicidal effect grade” value in the experiment on green foxtail [3] (setting [9]) was 5 (Herbicidal rate of 90% or more (almost completely withered)). Moreover, the “Herbicidal effect on E (rice flat sedge), foliage application” value in the experiment with rice flat sedge is 5 (Herbicidal rate of 90% or more (almost completely withered)). Moreover, the “herbicidal effect rating, B: Japanese bulrush” value with Japanese bulrush is 3 (Herbicidal rate of 40% or more and less than 70%). The “P: chickweed, herbicidal effect grade” value in the experiment with chickweed [7] is 1 (Herbicidal rate of 5% or more and less than 20%). For the same compound, the “P (chickweed) herbicidal effect grade” value in the experiment on chickweed [8] is on record as 5 (Herbicidal rate of 90% or more (almost completely withered)). In addition, the “N (redroot pigweed) herbicidal effect grade” value with redroot pigweed is listed as 5 (Herbicidal rate of 90% or more (almost completely withered)). For the same compound, the “H: barnyard grass, herbicidal effect grade” value with barnyard grass is recorded as 5 (Herbicidal rate of 90% or more (almost completely withered)). In addition, in the experiment on lambsquarters, the “O: lambsquarters, herbicidal effect grade” value is given as 5 (Herbicidal rate of 90% or more (almost completely withered)). In addition, the “herbicidal effect rating, C: oval-leafed pondweed” value in the experiment on oval-leafed pondweed is 5 (Herbicidal rate of 90% or more (almost completely withered)). Moreover, in the experiment on velvetleaf [4], the “M: velvetleaf, herbicidal effect grade” value is reported as 5 (Herbicidal rate of 90% or more (almost completely withered)). In addition, the “G: green foxtail, herbicidal effect grade” value in the experiment with green foxtail [5] is 5 (Herbicidal rate of 90% or more (almost completely withered)). Further, the “herbicidal effect rating, A: late watergrass” value in the experiment with late watergrass [6] is 3 (Herbicidal rate of 40% or more and less than 70%).
